≈ marks a conversion by molar mass, not a printed value. Read-outs that look alike come from different tables or passages of the source.
Key:
Solubility in PBS = type: physicochemical
Outline: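 HPLC quantitation of peptide remaining in the PBS supernatant after ultracentrifugation, referenced to a 50 μM solution in DMSO.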

CHI Log D procedure = type: physicochemical; settings: pH 7.4, CHI Log D
[1] = target: T1, beta-catenin/TCF4 engagement (Homo sapiens, UniProt P35222); test: Nano-BRET target engagement assay (B-cat-Halo & TCF4-Luc in HEK293 cells); type: cell-based
T1 construct: expressed in transfected cells; host or cells: HEK293
T1 sequence (P35222 1-781): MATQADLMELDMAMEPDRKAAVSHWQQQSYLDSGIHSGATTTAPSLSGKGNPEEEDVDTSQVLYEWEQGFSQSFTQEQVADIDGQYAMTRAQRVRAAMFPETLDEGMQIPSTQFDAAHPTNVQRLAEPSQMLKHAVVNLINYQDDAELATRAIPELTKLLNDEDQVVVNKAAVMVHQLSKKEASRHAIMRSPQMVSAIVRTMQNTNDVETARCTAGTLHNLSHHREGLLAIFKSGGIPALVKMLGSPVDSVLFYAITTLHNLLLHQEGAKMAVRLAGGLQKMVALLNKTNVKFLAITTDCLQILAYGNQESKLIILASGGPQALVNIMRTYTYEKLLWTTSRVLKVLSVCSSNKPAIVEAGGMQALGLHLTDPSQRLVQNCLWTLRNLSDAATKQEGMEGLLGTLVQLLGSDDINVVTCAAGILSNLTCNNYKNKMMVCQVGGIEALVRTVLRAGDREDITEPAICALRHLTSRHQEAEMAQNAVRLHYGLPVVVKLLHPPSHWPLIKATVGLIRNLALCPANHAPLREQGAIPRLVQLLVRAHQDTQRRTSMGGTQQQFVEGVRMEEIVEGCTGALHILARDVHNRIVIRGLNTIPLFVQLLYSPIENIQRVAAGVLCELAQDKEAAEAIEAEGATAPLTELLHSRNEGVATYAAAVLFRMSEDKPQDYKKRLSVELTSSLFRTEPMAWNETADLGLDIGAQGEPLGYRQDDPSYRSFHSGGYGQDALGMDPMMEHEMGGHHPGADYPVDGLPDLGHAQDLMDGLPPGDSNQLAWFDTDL

[2] = target: T2, full-length beta-Catenin (Uniprot ID P35222) (Homo sapiens, UniProt P35222); test: Fluorescence polarization IC50 (beta-catenin / 5FAM-TCF4 10-53 competition); type: binding; settings: read-out: beta-Catenin FP IC50
T2 construct: 10 nM full-length beta-Catenin (Uniprot ID P35222)
T2 sequence (P35222 1-781): T1 sequence (P35222 1-781)

[3] = absolute IC50, read-out: NanoBRET Abs IC50

Row | Solubility (Solubility in PBS; Solubility (uM)) [µM] | chromatographic logD (CHI Log D procedure) | IC50 ([1]; read-out: NanoBRET Abs IC50) [µM] | IC50 [2] [µM] | Solubility (Solubility in PBS) [µM] | IC50 ([1]; read-out: NanoBRET IC50) [µM] | IC50 [1, 3] [µM] | Compound
1 | 40 (≈ 88.3 µg/mL) | 1.84 | 29.8 | 0.01 | – | – | – | CC(=O)N1CCC[C@]12CC=CCCCC1(CCCC=CCCCOC(=O)N3CC[C@@](C(=O)N[C@@H](Cc4ccsc4)C(=O)N[C@@H](Cc4csc5ccccc45)C(=O)N[C@@H](CCC(N)=O)C(=O)N[C@@H](CCCCNC(=O)c4ccc(CN(C)C)cc4)C(N)=O)(C3)NC(=O)[C@H](CC(N)=O)NC(=O)[C@H](Cc3ccccc3)NC(=O)[C@H](C)NC(=O)[C@H](C)NC(=O)[C@H](CC(=O)O)NC(=O)[C@H](CC(=O)O)NC1=O)NC(=O)[C@H](CC(C)(C)C)NC(=O)[C@H](CC(=O)O)NC2=O (stereo partly drawn) [I-910, Ac-PL3-Asp-Npg-B5-Asp-Asp-Ala-Ala-Phe-Asn-PyrS2-3Thi-BztA-Gln-[Me2NCBz]Lys-NH2]
2 | 49 (≈ 115 µg/mL) | 1.82 | 26.4 | 0.01 | – | – | – | COCCOCCOCCOCCOCCOCCC(=O)NCCCC[C@H](NC(=O)[C@H](CCC(N)=O)NC(=O)[C@H](Cc1csc2ccccc12)NC(=O)[C@H](Cc1ccsc1)NC(=O)[C@]12CCN(C1)C(=O)OCCCC=CCCCC1(CCCC=CC[C@]3(CCCN3C(C)=O)C(=O)N[C@@H](CC(=O)O)C(=O)N[C@@H](CC(C)(C)C)C(=O)N1)C(=O)N[C@@H](CC(=O)O)C(=O)N[C@@H](CC(=O)O)C(=O)N[C@@H](C)C(=O)N[C@@H](C)C(=O)N[C@@H](Cc1ccccc1)C(=O)N[C@@H](CC(N)=O)C(=O)N2)C(N)=O (stereo partly drawn) [I-913, Ac-PL3-Asp-Npg-B5-Asp-Asp-Ala-Ala-Phe-Asn-PyrS2-3Thi-BztA-Gln-[mPEG6]Lys-NH2]
3 | 41 (≈ 90.2 µg/mL) | 2.33 | 15.5 | 0.028 | – | – | – | CC(=O)N1CCC[C@]12CC=CCCCC1(CCCC=CCCCOC(=O)N3CC[C@@](C(=O)N[C@@H](Cc4ccsc4)C(=O)N[C@@H](Cc4csc5ccccc45)C(=O)N[C@@H](CCC(N)=O)C(=O)N[C@@H](CCCCNC(=O)c4ccc5ccccc5c4)C(N)=O)(C3)NC(=O)[C@H](CC(N)=O)NC(=O)[C@H](Cc3ccccc3)NC(=O)[C@H](C)NC(=O)[C@H](C)NC(=O)[C@H](CC(=O)O)NC(=O)[C@H](CC(=O)O)NC1=O)NC(=O)[C@H](CC(C)(C)C)NC(=O)[C@H](CC(=O)O)NC2=O (stereo partly drawn) [I-915, Ac-PL3-Asp-Npg-B5-Asp-Asp-Ala-Ala-Phe-Asn-PyrS2-3Thi-BztA-Gln-[2Napc]Lys-NH2]
4 | 44 (≈ 93.1 µg/mL) | 2.15 | 19.7 | 0.012 | – | – | – | CCCC(=O)NCCCC[C@H](NC(=O)[C@H](CCC(N)=O)NC(=O)[C@H](Cc1csc2ccccc12)NC(=O)[C@H](Cc1ccsc1)NC(=O)[C@]12CCN(C1)C(=O)OCCCC=CCCCC1(CCCC=CC[C@]3(CCCN3C(C)=O)C(=O)N[C@@H](CC(=O)O)C(=O)N[C@@H](CC(C)(C)C)C(=O)N1)C(=O)N[C@@H](CC(=O)O)C(=O)N[C@@H](CC(=O)O)C(=O)N[C@@H](C)C(=O)N[C@@H](C)C(=O)N[C@@H](Cc1ccccc1)C(=O)N[C@@H](CC(N)=O)C(=O)N2)C(N)=O (stereo partly drawn) [I-917, Ac-PL3-Asp-Npg-B5-Asp-Asp-Ala-Ala-Phe-Asn-PyrS2-3Thi-BztA-Gln-[Bua]Lys-NH2]
5 | 44 (≈ 95.6 µg/mL) | 2.49 | 11.1 | 0.033 | – | – | – | CCCCCCCC(=O)NCCCC[C@H](NC(=O)[C@H](CCC(N)=O)NC(=O)[C@H](Cc1csc2ccccc12)NC(=O)[C@H](Cc1ccsc1)NC(=O)[C@]12CCN(C1)C(=O)OCCCC=CCCCC1(CCCC=CC[C@]3(CCCN3C(C)=O)C(=O)N[C@@H](CC(=O)O)C(=O)N[C@@H](CC(C)(C)C)C(=O)N1)C(=O)N[C@@H](CC(=O)O)C(=O)N[C@@H](CC(=O)O)C(=O)N[C@@H](C)C(=O)N[C@@H](C)C(=O)N[C@@H](Cc1ccccc1)C(=O)N[C@@H](CC(N)=O)C(=O)N2)C(N)=O (stereo partly drawn) [I-918, Ac-PL3-Asp-Npg-B5-Asp-Asp-Ala-Ala-Phe-Asn-PyrS2-3Thi-BztA-Gln-[Oct]Lys-NH2]
6 | 44 (≈ 97.2 µg/mL) | 2.55 | 15.2 | 0.028 | – | – | – | CC(=O)N1CCC[C@]12CC=CCCCC1(CCCC=CCCCOC(=O)N3CC[C@@](C(=O)N[C@@H](Cc4ccsc4)C(=O)N[C@@H](Cc4csc5ccccc45)C(=O)N[C@@H](CCC(N)=O)C(=O)N[C@@H](CCCCNC(=O)C45CC6CC(CC(C6)C4)C5)C(N)=O)(C3)NC(=O)[C@H](CC(N)=O)NC(=O)[C@H](Cc3ccccc3)NC(=O)[C@H](C)NC(=O)[C@H](C)NC(=O)[C@H](CC(=O)O)NC(=O)[C@H](CC(=O)O)NC1=O)NC(=O)[C@H](CC(C)(C)C)NC(=O)[C@H](CC(=O)O)NC2=O (stereo partly drawn) [I-919, Ac-PL3-Asp-Npg-B5-Asp-Asp-Ala-Ala-Phe-Asn-PyrS2-3Thi-BztA-Gln-[AdamantC]Lys-NH2]
7 | – | 3.08 | 17.7 | 0.117 | 50 (≈ 113 µg/mL) | – | – | CC(=O)N1CCC[C@]12CC=CCCCC1(CCCC=CCCCOC(=O)N3CC[C@@](C(=O)N[C@@H](Cc4ccsc4)C(=O)N[C@@H](Cc4csc5ccccc45)C(=O)N[C@@H](CCC(N)=O)C(=O)N[C@@H](CCCCNC(=O)C45CC6(C)CC(C)(CC(C)(C6)C4)C5)C(N)=O)(C3)NC(=O)[C@H](CC(N)=O)NC(=O)[C@H](Cc3ccccc3)NC(=O)[C@H](C)NC(=O)[C@H](C)NC(=O)[C@H](CC(=O)O)NC(=O)[C@H](CC(=O)O)NC1=O)NC(=O)[C@H](CC(C)(C)C)NC(=O)[C@H](CC(=O)O)NC2=O (stereo partly drawn) [I-920, Ac-PL3-Asp-Npg-B5-Asp-Asp-Ala-Ala-Phe-Asn-PyrS2-3Thi-BztA-Gln-[Me3AdamantC]Lys-NH2]
8 | 24 (≈ 49.4 µg/mL) | 2.26 | – | 0.008 | – | 4 | – | CC(=O)N1CCC[C@]12CC=CCCCC1(CCCC=CCCCOC(=O)N3CC[C@@](C(=O)N[C@@H](Cc4ccccc4Cl)C(=O)N[C@@H](Cc4csc5ccccc45)C(=O)N[C@@H](CCC(N)=O)C(N)=O)(C3)NC(=O)[C@H](CC(N)=O)NC(=O)[C@H](Cc3ccccc3)NC(=O)[C@H](C)NC(=O)[C@H](C)NC(=O)[C@H](CN(CC(=O)O)CC(F)(F)F)NC(=O)[C@H](CC(=O)O)NC1=O)NC(=O)[C@H](CC(C)(C)C)NC(=O)[C@H](CC(=O)O)NC2=O (stereo partly drawn) [I-921, Ac-PL3-Asp-Npg-B5-Asp-TfeGA-Ala-Ala-Phe-Asn-PyrS2-2C1F-BztA-Gln-NH2]
9 | 15 (≈ 30.7 µg/mL) | 1.79 | 25.1 | 0.008 | – | 18 | – | CC(=O)N1CCC[C@]12CC=CCCCC1(CCCC=CCCCOC(=O)N3CC[C@@](C(=O)N[C@@H](Cc4ccsc4)C(=O)N[C@@H](Cc4csc5ccccc45)C(=O)N[C@@H](CCC(N)=O)C(=O)N[C@@H](CCCCN)C(N)=O)(C3)NC(=O)[C@H](CC(N)=O)NC(=O)[C@H](Cc3ccccc3)NC(=O)[C@H](C)NC(=O)[C@H](C)NC(=O)[C@H](CC(=O)O)NC(=O)[C@H](CC(=O)O)NC1=O)NC(=O)[C@H](CC(C)(C)C)NC(=O)[C@H](CC(=O)O)NC2=O (stereo partly drawn) [I-939, Ac-PL3-Asp-Npg-B5-Asp-Asp-Ala-Ala-Phe-Asn-PyrS2-3Thi-BztA-Gln-Lys-NH2]
10 | – | 2.65 | – | 0.041 | 10 (≈ 20.5 µg/mL) | – | 8.8 | CC(=O)N1CCC[C@]12CC=CCCCC1(CCCC=CCCCOC(=O)N3CC[C@@](C(=O)N[C@@H](Cc4ccccc4Cl)C(=O)N[C@@H](Cc4csc5ccccc45)C(=O)N[C@@H](CO)C(N)=O)(C3)NC(=O)[C@H](Cc3ccccc3)NC(=O)[C@H](Cc3ccccc3)NC(=O)[C@H](C)NC(=O)[C@H](C)NC(=O)[C@H](CN(CC(=O)O)CC(F)(F)F)NC(=O)[C@H](CC(=O)O)NC1=O)NC(=O)[C@H](CC(C)(C)C)NC(=O)[C@H](CC(=O)O)NC2=O (stereo partly drawn) [I-990, Ac-PL3-Asp-Npg-B5-Asp-TfeGA-Ala-Ala-Phe-Phe-PyrS2-2C1F-BztA-Ser-NH2]
11 | 30 (≈ 63.4 µg/mL) | 1.7 | – | 0.005 | – | – | > 20 | CC(=O)N1CCC[C@]12CC=CCCCC1(CCCC=CCCCOC(=O)N3CC[C@@](C(=O)N[C@@H](Cc4ccccc4Cl)C(=O)N[C@@H](Cc4csc5ccccc45)C(=O)N[C@@H](CCC(N)=O)C(N)=O)(C3)NC(=O)[C@H](CC(N)=O)NC(=O)[C@H](Cc3ccccc3)NC(=O)[C@H](CCCCN)NC(=O)[C@H](C)NC(=O)[C@H](CN(CC(=O)O)CC(F)(F)F)NC(=O)[C@H](CC(=O)O)NC1=O)NC(=O)[C@H](CC(C)(C)C)NC(=O)[C@H](CC(=O)O)NC2=O (stereo partly drawn) [I-1006, Ac-PL3-Asp-Npg-B5-Asp-TfeGA-Ala-Lys-Phe-Asn-PyrS2-2C1F-BztA-Gln-NH2]

— US20240116985A1, “STAPLED PEPTIDES AND METHODS THEREOF” (priority 2020, published 2024)
